Measurements as given in patent publication EP4610269A1, “UROKINASE PLASMINOGEN ACTIVATOR SURFACE RECEPTOR (UPAR) LIGANDS FOR DIAGNOSTIC OR THERAPEUTIC USE” (3B Pharmaceuticals GmbH, priority 2024, dated 2025).
Like-named read-outs stand apart in the source and are kept apart here. *1 amine or outer side, *2 acyl side, *3 side chain or, on linkers, in order; H or OH if unused. Where a SMILES comes first, the peptide text is derived from it. Bridges are numbered along the chain shown (N, C = ends). Side-chain parts run from the residue outwards. [ ]: non-standard residue; d: D form. The star is where a group is joined. Acetyl(4-DOTA-piperazinyl) = O=C(O)CN1CCN(CC(=O)O)CCN(CC(=O)N2CCN(CC(=O)*)CC2)CCN(CC(=O)O)CC1; DOTA(In) = O=C1CN2CCN3CCN(CC(=O)*)CCN(CC2)CC(=O)[O][In]([O]1)[O]C(=O)C3; CH3O(CH2CH2O)11CH2CH2CO = COCCOCCOCCOCCOCCOCCOCCOCCOCCOCCOCCOCCC(=O)*; X6 = O=C(O)CN1CCN(CC(=O)O)CCN(CC(=O)NCCCOCCOCCOCCCN*)CCN(CC(=O)O)CC1; DOTA = O=C(O)CN1CCN(CC(=O)O)CCN(CC(=O)*)CCN(CC(=O)O)CC1; Pro(cis-4-F) = O=C(O)[C@@H]1C[C@H](F)CN1; Dopa = N[C@@H](Cc1ccc(O)c(O)c1)C(=O)O; Pentanesulfonyl = CCCCCS(=O)(=O)*; Hyp = O=C(O)[C@@H]1C[C@@H](O)CN1; NMeI = CC[C@H](C)[C@H](NC)C(=O)O; Gly(cBu) = N[C@H](C(=O)O)C1CCC1; Pentanoyl(4-Me) = CC(C)CCC(=O)*; Cit = NC(=O)NCCC[C@H](N)C(=O)O; Butoxycarbonyl = CCCCOC(=O)*; Suc = O=C(CCC(=O)[*:2])[*:1]; dNva = CCC[C@@H](N)C(=O)O; Nle = CCCC[C@H](N)C(=O)O; Orn = NCCC[C@H](N)C(=O)O; dNMeA = CN[C@H](C)C(=O)O; Nva = CCC[C@H](N)C(=O)O; Pentanoyl = CCCCC(=O)*

Experiments:
[1] = target: T1, uPAR-expressing HEC-265 human endometrial adenocarcinoma cells (Homo sapiens, UniProt Q03405); assay: Competitive FACS binding assay; conditions: pIC50 category of FACS binding
T1 construct: Cell surface uPAR-expressing HEC-265 human endometrial adenocarcinoma cells; host or cells: HEC-265
T1 sequence (Q03405 23-335): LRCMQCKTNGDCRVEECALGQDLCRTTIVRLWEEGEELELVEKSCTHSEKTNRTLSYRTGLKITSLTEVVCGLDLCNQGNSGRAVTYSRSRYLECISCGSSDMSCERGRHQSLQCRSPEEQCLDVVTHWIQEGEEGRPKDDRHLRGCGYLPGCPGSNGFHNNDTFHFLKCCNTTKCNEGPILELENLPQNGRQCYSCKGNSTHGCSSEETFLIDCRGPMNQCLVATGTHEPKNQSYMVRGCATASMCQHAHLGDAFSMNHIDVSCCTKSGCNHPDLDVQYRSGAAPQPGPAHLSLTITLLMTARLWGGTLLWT
Summary of the method: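 HEC-265 cells incubated 1 h at 4 °C with 10 nM biotinylated uPAR peptide tracer plus increasing test compound, then stained with APC-streptavidin on ice. Median APC fluorescence by flow cytometry; 4PL fit gives pIC50.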

human uPAR (uPAR-Fc) = target: T2, human uPAR (uPAR-Fc) (Homo sapiens, UniProt Q03405); assay: Surface plasmon resonance (SPR) assay, single cycle kinetics; assay type: binding; conditions: pKD category for uPAR SPR activity assay, uPAR-Fc on Protein A-Chip, 25°C; for Kd: read-out: pKD CAT (converted)
T2 construct: comprising amino acids Leu23-Arg303 according to UniProt entry Q03405.1; purchased R&D Systems 10378-UK-100
T2 sequence (Q03405 23-303): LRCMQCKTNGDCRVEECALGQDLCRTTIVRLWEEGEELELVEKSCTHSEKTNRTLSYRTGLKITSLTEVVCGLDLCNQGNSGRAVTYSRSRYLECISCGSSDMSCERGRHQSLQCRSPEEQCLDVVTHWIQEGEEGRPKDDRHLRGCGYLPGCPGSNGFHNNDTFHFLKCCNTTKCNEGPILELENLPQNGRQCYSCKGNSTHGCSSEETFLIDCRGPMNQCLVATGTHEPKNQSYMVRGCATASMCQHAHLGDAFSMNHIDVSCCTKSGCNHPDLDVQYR
Summary of the method: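 uPAR-Fc (Leu23-Arg303 extracellular domains, human IgG1 Fc) captured on Protein A chip to ~2000 RU; single-cycle kinetics at 25°C in HEPES running buffer pH 7.4 with 0.1% DMSO. KD from double-referenced sensorgrams fitted to 1:1 Langmuir model, reported as pKD.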

Compound	IC50 [1] [nM]	Kd (human uPAR (uPAR-Fc)) [nM]	Kd (human uPAR (uPAR-Fc); single cycle kinetics) [nM]	pIC50 CAT [1]	pKD CAT (human uPAR (uPAR-Fc))
CCCC[C@@H]1NC(=O)[C@H](CCCNC(=N)N)NC(=O)[C@@H](NC(=O)[C@H](CC(C)C)NC(=O)[C@H](CC(=O)O)NC(C)=O)CSSC[C@@H](C(N)=O)NC(=O)[C@H](CC(C)C)NC(=O)[C@H]([C@@H](C)CC)NC(=O)[C@H](C)NC(=O)[C@H]2CCCN2C(=O)[C@H](Cc2ccccc2)NC(=O)[C@H](Cc2ccc(O)cc2)NC1=O [UPAR-218, Ac-Asp-Leu-[Cys-Arg-Nle-Tyr-Phe-pro-Ala-Ile-Leu-Cys]-NH2] (Ac-DLCR[Nle]YF[dP]AILC-NH2; disulfide 3-12)	≥ 126	> 100	–	–	–
CCCCCS(=O)(=O)N[C@H]1CSSC[C@@H](C(N)=O)NC(=O)[C@H](CCC)NC(=O)[C@H]([C@@H](C)CC)NC(=O)[C@@H]2C[C@@H](O)CN2C(=O)[C@@H]2CCCN2C(=O)[C@H](Cc2ccccc2)NC(=O)[C@H](Cc2ccc(O)cc2)NC(=O)[C@H](CCC(N)=O)NC(=O)[C@H](CCCNC(=N)N)NC1=O [UPAR-328, PentylSO2-[Cys-Arg-Gln-Tyr-Phe-Pro-Hyp-Ile-Nva-Cys]-NH2] (Pentanesulfonyl-CRQYFP[Hyp]I[Nva]C-NH2; disulfide 1-10)	≤ 10	< 1.58	–	–	–
CCCCC(=O)N[C@H]1CSSC[C@@H](C(N)=O)NC(=O)[C@H](CCC)NC(=O)[C@H]([C@@H](C)CC)NC(=O)[C@H](CC(=O)O)NC(=O)[C@@H]2CCCN2C(=O)[C@H](Cc2ccccc2)NC(=O)[C@H](Cc2ccc(O)cc2)NC(=O)[C@H](CCC(N)=O)NC(=O)[C@H](CCCNC(=N)N)NC1=O [UPAR-344, Pent-[Cys-Arg-Gln-Tyr-Phe-Pro-Asp-Ile-Nva-Cys]-NH2] (Pentanoyl-CRQYFPDI[Nva]C-NH2; disulfide 1-10)	≤ 10	< 1.58	–	–	–
CCCCOC(=O)N[C@H]1CSSC[C@@H](C(N)=O)NC(=O)[C@H](CCC)NC(=O)[C@H]([C@@H](C)CC)NC(=O)[C@@H]2C[C@@H](O)CN2C(=O)[C@@H]2C[C@H](F)CN2C(=O)[C@H](Cc2ccccc2)NC(=O)[C@H](Cc2ccc(O)c(O)c2)NC(=O)[C@H](CCCCNC(=O)CN2CCN(C(=O)CN3CCN(CC(=O)O)CCN(CC(=O)O)CCN(CC(=O)O)CC3)CC2)NC(=O)[C@H]([C@@H](C)O)NC1=O [UPAR-199, Butoc-[Cys-Thr-Lys(DOTA-PPAc)-Dopa-Phe-4Cfp-Hyp-Ile-Nva-Cys]-NH2] (Butoxycarbonyl-CTK(Acetyl(4-DOTA-piperazinyl))[Dopa]F[Pro(cis-4-F)][Hyp]I[Nva]C-NH2; disulfide 1-10)	≤ 10	< 1.58	–	–	–
CCCC[C@H](NC(=O)CCC(=O)NCCCOCCOCCOCCCNC(=O)CN1CCN(CC(=O)O)CCN(CC(=O)O)CCN(CC(=O)O)CC1)C(=O)N[C@@H](CC(=O)O)C(=O)N[C@@H](CC(C)C)C(=O)N[C@H]1CSSC[C@@H](C(N)=O)NC(=O)[C@H](CC(C)C)NC(=O)[C@H]([C@@H](C)CC)NC(=O)[C@H](C)NC(=O)[C@@H]2CCCN2C(=O)[C@H](Cc2ccccc2)NC(=O)[C@H](Cc2ccc(O)cc2)NC(=O)[C@H](CCSC)NC(=O)[C@H](CCCNC(=N)N)NC1=O [UPAR-347, DOTA-Ttds-Nle-Asp-Leu-[Cys-Arg-Met-Tyr-Phe-Pro-Ala-Ile-Leu-Cys]-NH2] ({X6-Suc}-[Nle]DLCRMYFPAILC-NH2; disulfide 4-13)	≤ 10	–	< 1.58	–	–
CCCCC(=O)N[C@H]1CSSC[C@@H](C(N)=O)NC(=O)[C@H](CCC)NC(=O)[C@H]([C@@H](C)CC)NC(=O)[C@@H](CCC)NC(=O)[C@@H]2CCCN2C(=O)[C@H](Cc2ccccc2)NC(=O)[C@H](Cc2ccc(O)cc2)NC(=O)[C@H](CCC(N)=O)NC(=O)[C@H](CCCNC(=N)N)NC1=O [UPAR-322, Pent-[Cys-Arg-Gln-Tyr-Phe-Pro-nva-Ile-Nva-Cys]-NH2] (Pentanoyl-CRQYFP[dNva]I[Nva]C-NH2; disulfide 1-10)	12.6 to 31.6	1.58 to 10	–	–	–
CCCCC(=O)N[C@H]1CSSC[C@@H](C(N)=O)NC(=O)[C@H](CCC)NC(=O)[C@H]([C@@H](C)CC)NC(=O)[C@@H]2C[C@@H](O)CN2C(=O)[C@@H](C)N(C)C(=O)[C@H](Cc2ccccc2)NC(=O)[C@H](Cc2ccc(O)cc2)NC(=O)[C@H](CCC(N)=O)NC(=O)[C@H](CCCNC(=N)N)NC1=O [UPAR-211, Pent-[Cys-Arg-Gln-Tyr-Phe-nma-Hyp-Ile-Nva-Cys]-NH2] (Pentanoyl-CRQYF[dNMeA][Hyp]I[Nva]C-NH2; disulfide 1-10)	≥ 126	> 100	–	–	–
CC[C@H](C)[C@@H]1NC(=O)[C@@H](C)NC(=O)[C@@H]2CCCN2C(=O)[C@H](Cc2ccccc2)NC(=O)[C@H](C)NC(=O)[C@H](CCC(N)=O)NC(=O)[C@H](CCCNC(N)=O)NC(=O)[C@@H](NC(=O)CCC(C)C)CSSC[C@@H](C(N)=O)NC(=O)[C@H](CC(C)C)NC1=O [UPAR-159, iHex-[Cys-Cit-Gln-Ala-Phe-Pro-ala-Ile-Leu-Cys]-NH2] ({Pentanoyl(4-Me)}-C[Cit]QAFP[dA]ILC-NH2; disulfide 1-10)	≥ 126	> 100	–	–	–
CCCCC(=O)N[C@H]1CSSC[C@@H](C(N)=O)NC(=O)[C@H](CCC)NC(=O)[C@H]([C@@H](C)CC)NC(=O)[C@@H]2C[C@@H](O)CN2C(=O)[C@@H]2CCCN2C(=O)[C@H](CC(C)C)NC(=O)[C@H](Cc2ccc(O)cc2)NC(=O)[C@H](CCC(N)=O)NC(=O)[C@H](CCCNC(=N)N)NC1=O [UPAR-197, Pent-[Cys-Arg-Gln-Tyr-Leu-Pro-Hyp-Ile-Nva-Cys]-NH2] (Pentanoyl-CRQYLP[Hyp]I[Nva]C-NH2; disulfide 1-10)	12.6 to 31.6	1.58 to 10	–	–	–
Pent-[Cys-Orn(mPEG12)-Lys(InDOTA)-Tyr-Phe-Pro-Hyp-Ile-Nva-Cys]-NH2 (Pentanoyl-C[Orn](CH3O(CH2CH2O)11CH2CH2CO)K(DOTA(In))YFP[Hyp]I[Nva]C-NH2; disulfide 1-10; not fully specified; also: In(III) complexed by DOTA) [UPAR-311]	–	–	–	A (pIC50 values ≥8.0)	A (pKD values ≥ 8.8)
Pent-[Cys-Cit-Lys(InDOTA)-Tyr-Mpa-Pro-Hyp-Ile-Nva-Cys]-NH2 [UPAR-331]	–	–	–	A (pIC50 values ≥8.0)	A (pKD values ≥ 8.8)
CC[C@H](C)[C@@H]1NC(=O)[C@@H](C)NC(=O)[C@@H]2CCCN2C(=O)[C@H](Cc2ccccc2)NC(=O)[C@H](Cc2ccc(O)c(O)c2)NC(=O)[C@H](CCC(N)=O)NC(=O)[C@H](CCCNC(N)=O)NC(=O)[C@@H](NC(=O)CCC(C)C)CSSC[C@@H](C(N)=O)NC(=O)[C@H](CC(C)C)NC1=O [UPAR-144, iHex-[Cys-Cit-Gln-Dopa-Phe-Pro-ala-Ile-Leu-Cys]-NH2] ({Pentanoyl(4-Me)}-C[Cit]Q[Dopa]FP[dA]ILC-NH2; disulfide 1-10)	≤ 10	< 1.58	–	–	–
CC[C@H](C)[C@@H]1NC(=O)[C@H]([C@@H](C)CC)NC(=O)[C@@H](C)NC(=O)[C@@H]2CCCN2C(=O)[C@H](Cc2ccccc2)NC(=O)[C@H](Cc2ccc(O)cc2)NC(=O)[C@H](CCC(N)=O)NC(=O)[C@H](CCCNC(N)=O)NC(=O)[C@@H](NC(=O)CCC(C)C)CSSC[C@@H](C(N)=O)NC1=O [UPAR-405, iHex-[Cys-Cit-Gln-Tyr-Phe-Pro-ala-Ile-Ile-Cys]-NH2] ({Pentanoyl(4-Me)}-C[Cit]QYFP[dA]IIC-NH2; disulfide 1-10)	12.6 to 31.6	–	1.58 to 10	–	–
CCCCOC(=O)N[C@H]1CSSC[C@@H](C(N)=O)NC(=O)[C@H](CCC)NC(=O)[C@H]([C@@H](C)CC)NC(=O)[C@@H]2C[C@@H](O)CN2C(=O)[C@@H]2C[C@H](F)CN2C(=O)[C@H](Cc2ccccc2)NC(=O)[C@H](Cc2ccc(O)cc2)NC(=O)[C@H](CCCCNC(=O)[C@@H](CC(=O)O)NC(=O)CN2CCN(CC(=O)O)CCN(CC(=O)O)CCN(CC(=O)O)CC2)NC(=O)[C@H]([C@@H](C)O)NC1=O [UPAR-424, Butoc-[Cys-Thr-Lys(DOTA-asp)-Tyr-Phe-4Cfp-Hyp-Ile-Nva-Cys]-NHz] (Butoxycarbonyl-CTK([dD-DOTA])YF[Pro(cis-4-F)][Hyp]I[Nva]C-NH2; disulfide 1-10)	≤ 10	–	< 1.58	–	–
CCC[C@@H]1NC(=O)[C@H]([C@@H](C)CC)NC(=O)[C@@H](C)NC(=O)[C@@H]2CCCN2C(=O)[C@H](Cc2ccccc2)NC(=O)[C@H](Cc2ccc(O)cc2)NC(=O)[C@H](CCC(N)=O)NC(=O)[C@H](CCCNC(N)=O)NC(=O)[C@@H](NC(=O)CCC(C)C)CSSC[C@@H](C(N)=O)NC1=O [UPAR-429, iHex-[Cys-Cit-Gln-Tyr-Phe-Pro-ala-Ile-Nva-Cys]-NH2] ({Pentanoyl(4-Me)}-C[Cit]QYFP[dA]I[Nva]C-NH2; disulfide 1-10)	≤ 10	–	< 1.58	–	–
CC[C@H](C)[C@H]1C(=O)N[C@@H](CC(C)C)C(=O)N[C@H](C(N)=O)CSSC[C@H](NC(=O)CCC(C)C)C(=O)N[C@@H](CCCNC(N)=O)C(=O)N[C@@H](CCC(N)=O)C(=O)N[C@@H](Cc2ccc(O)cc2)C(=O)N[C@@H](Cc2ccccc2)C(=O)N2CCC[C@H]2C(=O)N[C@H](C)C(=O)N1C [UPAR-340, iHex-[Cys-Cit-Gln-Tyr-Phe-Pro-ala-Nmi-Leu-Cys]-NH2] ({Pentanoyl(4-Me)}-C[Cit]QYFP[dA][NMeI]LC-NH2; disulfide 1-10)	≥ 126	10 to 100	–	–	–
CC(C)CCC(=O)N[C@H]1CSSC[C@@H](C(N)=O)NC(=O)[C@H](CC(C)C)NC(=O)[C@H](C2CCC2)NC(=O)[C@@H](C)NC(=O)[C@@H]2CCCN2C(=O)[C@H](Cc2ccccc2)NC(=O)[C@H](Cc2ccc(O)cc2)NC(=O)[C@H](CCC(N)=O)NC(=O)[C@H](CCCNC(N)=O)NC1=O [UPAR-453, iHex-[Cys-Cit-Gln-Tyr-Phe-Pro-ala-Cbg-Leu-Cys]-NH2] ({Pentanoyl(4-Me)}-C[Cit]QYFP[dA][Gly(cBu)]LC-NH2; disulfide 1-10)	≤ 10	–	1.58 to 10	–	–
